Results: PMC6982951, “The N’-Substituted Derivatives of 5-Chloro-3-Methylisothiazole-4-Carboxylic Acid Hydrazide with Antiproliferative Activity” (Molecules, 2019)
“And” between values parts separate entries of the source, which are not always exact repeats. Identical values can stand only once. “Also recorded” adds a separate entry of the source. Like-named read-outs stand apart in the source and are kept apart here.

Assays:
[1] = tested on: MCF-10A (normal non-tumorigenic epithelial cell line derived from mammary gland); test: SRB cytotoxicity assay, 72 h exposure; type: cell-based, human; conditions: for IC50: read-out: IC50 ± SD MCF-10A; for cytotoxicity against normal MCF-10A cells relative to cancer MCF-7 cells: MCF-10A versus MCF-7
Source text: (§1) Established in vitro, human cell lines MV4-11 (human biphenotypic B myelomonocytic leukemia), MCF-7 (breast cancer), LoVo (colon cancer), LoVo/DX (colon cancer drug resistant), and MCF-10A (normal breast epithelial) were used. The lines were obtained from the American Type Culture Collection (lines MV4-11, LoVo, LoVo/DX, MCF-10A; Rockville, MD, USA) or from the European Collection of Authenticated Cell Cultures (line MCF-7) and are being maintained at the Hirszfeld Institute of Immunology and Experimental Therapy PAS, Wroclaw, Poland.
(§2) MCF-7 cells were cultured in the Eagle’s medium (HIIET PAS, Poland) supplemented with 10% FBS, 8 µg/mL insulin, 2 mM L-glutamine and 1% MEM-non essential amino acid solution 100X (all from Sigma Aldrich, Steinheim, Germany). MCF-10A cells were cultured in the HAM’S F-12 with L-glutamine medium (Corning) supplemented with 10% Hors Serum (Gibco), 10 µg/mL insulin, 0.5 µg/mL hydrocortisone, 20 ng/mL EGFh and 0.05 mg/mL Cholera Toxin from Vibrio cholerae (all from Sigma Aldrich, Steinheim, Germany). All culture mediums were supplemented with 100 units/mL penicillin (Polfa Tarchomin S.A. Poland), and 100 µg/mL streptomycin (Sigma Aldrich). All cell lines were grown at 37 °C with 5% CO2 humidified atmosphere.
(§3) Test solutions of the compounds tested (50 mM) were prepared by dissolving the substances in DMSO (Sigma Aldrich). Afterwards, the tested compounds were diluted in a culture medium to reach the final concentrations at the range of 1-80 μg/mL (250, 125, 25 and 5 μM).
(§4) Twenty-four hours prior to the addition of the tested compounds, the cells were plated in 96-well plates (Sarstedt, Germany) at a density of 1 × 10^4 or 0.75 × 10^4 (MCF-7) cells per well. The assay was performed after 72 h of exposure to varying concentrations of the tested agents. The in vitro cytotoxic effect of all agents was examined using the MTT (MV4-11) or SRB assay. The results were calculated as IC50 (inhibitory concentration 50%) the concentration of tested agent, which is cytotoxic for 50% of the cancer cells. Each compound in each concentration was tested in triplicate in a single experiment, which was repeated 3–4 times.
(§5) This technique was applied for the cytotoxicity screening against cells growing in adherent culture. The details of this technique were described by Skehan et. al.. The cytotoxicity assay was performed after 72 h exposure of the cultured cells to varying concentrations of the tested agents. The cells attached to the plastic were fixed by gently layering cold 50% TCA (trichloroacetic acid, Sigma Aldrich) on the top of the culture medium in each well. The plates were incubated at 4 °C for 1 h and then washed five times with tap water. The cellular material fixed with TCA was stained with 0.1% sulforhodamine B (SRB, Sigma Aldrich) dissolved in 1% acetic acid (POCh) for 30 min. Unbound dye was removed by rinsing (4×) with 1% acetic acid. The protein-bound dye was extracted with 10 mM unbuffered Tris base (Sigma Aldrich) for determination of optical density (at 540 nm) on Synergy H4 photometer (BioTek Instruments). The background optical density was measured in the wells filled with culture medium, without the cells.

[2] = tested on: MCF-7 (breast adenocarcinoma); test: SRB antiproliferative assay, 72 h exposure; type: cell-based, human; conditions: MCF-7, SRB; for IC50: read-out: IC50 ± SD MCF-7
Source text: as §1, §2, §3, §4, §5

[3] = tested on: LoVo/DX (human colon adenocarcinoma, resistant to doxorubicin); test: SRB antiproliferative assay, 72 h exposure; resistance index; type: cell-based; conditions: for RI (resistance index): IC50 against LoVo/DX divided by IC50 against LoVo; for IC50 ± SD LoVoDX / IC50: LoVo/DX, SRB, 72 h; for IC50: read-out: IC50 ± SD LoVoDX
Source text: as §1
(§6) MV4-11 cells were cultured in the RPMI 1640 medium (HIIET PAS, Poland) supplemented with 1.0 mM sodium pyruvate, 2 mM L-glutamine and 10% FBS (all from Sigma Aldrich, Steinheim, Germany), LoVo cells were cultured in the F-12K medium (Life Technologies, Carlsbad, CA, United States) supplemented with 10% FBS (GE Healthcare, Chicago, IL, USA), and LoVo/DX cells were cultured in the mixture of RPMI 1640+OptiMEM (1:1) medium (HIIET PAS) supplemented with 5% FBS (GE Healthcare, Chicago, IL, USA), 2 mM L-glutamine, 1.0 mM sodium pyruvate (all from Sigma Aldrich, Steinheim, Germany) and 0.1 µg/mL doxorubicin chloride (Accord).
as §3, §4
The resistance indexes (RI) were calculated by dividing the IC50 values of the compounds tested against the cells of drug resistant cell LoVo/DX line by respective values obtained against the cells of drug sensitive LoVo line (Table 2). According to Harker et al., three categories of the cells could be distinguished: (a) the cells are drug-sensitive if the ratio approaches 0–2; (b) the cells are moderately drug-resistant if the ratio ranges from 2 to 10; (c) the cells are markedly drug-resistant if the ratio is higher than 10.
as §5

[4] = tested on: MV4-11 (human biphenotypic B cell myelomonocytic leukemia); test: MTT antiproliferative assay, 72 h exposure; type: cell-based; conditions: for IC50 / IC50 ± SD: MV4-11, MTT, 72 h, n.a. = no activity in a concentration of 1–80 μg/mL; for antiproliferative activity (in words): MV4-11 leukemia cells; for inhibition at 80 µg/mL: MV4-11, compound concentration 80 μg/mL, read-out: inhibition of cell proliferation
Source text: as §1, §6, §3, §4
This technique was applied for cells growing in suspension culture. An assay was performed after 72 h exposure to varying concentrations of the tested agents. For the last 4 h of incubation, 20 µL of MTT solution was added to each well (MTT: 3-(4,5-dimethylthiazol-2-yl)-2,5-diphenyl tetrazolium bromide; stock solution: 5 mg/mL, Sigma Aldrich). When the incubation time was completed, 80 µL of the lysing mixture was added to each well (lysing mixture: 225 mL dimethylformamide, POCh, Gliwice, Poland, 67.5 g sodium dodecyl sulfate, Sigma Aldrich, and 275 mL of distilled water). After 24 h, when formazan crystals had been dissolved, the optical densities of the samples were read on Synergy H4 photometer (BioTek Instruments, USA) at 570 nm wavelength. The background optical density was measured in the wells filled with culture medium, without the cells.

[5] = tested on: LoVo (human colon adenocarcinoma, sensitive); test: SRB antiproliferative assay, 72 h exposure; type: cell-based; conditions: for IC50: read-out: IC50 ± SD LoVo
Source text: as §1, §6, §3, §4, §5

[6] = MCF-10A normal cells, SRB, 72 h
[7] = Homo sapiens, MCF-10A normal cells, SRB, 72 h

| SMILES | RI (resistance index) [3] | antiproliferative activity (in words) [4] | IC50 ([4]; Homo sapiens, MV4-11, 72 h) | IC50 [1, 7] | melting point [°C] | IC50 ([2]; Homo sapiens, MCF7, 72 h) | IC50 ([3]; Homo sapiens) | IC50 ([5]; Homo sapiens) | further results |
| --- | --- | --- | --- | --- | --- | --- | --- | --- | --- |
| N.N.[Cl][Pt][Cl] [Cisplatin, reference compound] | 0.49 |  |  |  |  |  |  |  | IC50 ± SD MCF-10A [1, 6]: 2.9 ± 0.4 µg/mL; IC50 [1, 6]: 9.7 ± 1.4 µM; IC50 ± SD MCF-7 [2]: 1.56 ± 0.3 µg/mL; IC50 [2]: 5.2 ± 1 µM; IC50 ± SD LoVoDX [3]: 0.84 ± 0.17 µg/mL; IC50 [3]: 2.8 ± 0.6 µM; IC50 [4]: 1.28 ± 0.45 µM; IC50 ± SD [4]: 0.38 ± 0.14 µg/mL; IC50 ± SD LoVo [5]: 1.7 ± 0.8 µg/mL; IC50 [5]: 5.6 ± 2.6 µM |
| Cc1nsc(Cl)c1C(=O)O [Compound 1, 5-Chloro-3-methylisothiazole-4-carboxylic acid] |  | no antiproliferative activity; also recorded: devoid of any anticancer activity |  |  |  |  |  |  |  |
| Cc1nsc(Cl)c1C(=O)NN [Compound 2, 5-Chloro-3-Methylisothiazole-4-Carbohydrazide] |  | very poor activity; also recorded: devoid of any anticancer activity | > 80 µg/mL |  |  |  |  |  | inhibition at 80 µg/mL ([4]; Homo sapiens): 45% |
| Cc1nsc(Cl)c1C(=O)N/N=C/C=C/c1ccccc1 [Compound 3, 5-Chloro-N’-[(1E,2E)-3-phenylprop-2-en-1-ylidene]-3-methylisothiazole-4-carbohydrazide] | 1.37 |  | 4.4 µg/mL and 14 µM | 20.9 µg/mL and 68.6 µM | 180 to 181 | 39.3 ± 6.3 µM | 34.2 ± 2.3 µM | 25 ± 5.5 µM | activity (IC50 value) towards MCF-10A normal cell line relative to cancer cells ([1]; MCF-10A versus cancer cells): almost two times lower activity; IC50 ± SD MCF-7 [2]: 12 ± 1.9 µg/mL; IC50 ± SD LoVoDX [3]: 10.4 ± 0.7 µg/mL; IC50 ± SD [4]: 4.3 ± 1.9 µg/mL; IC50 ± SD LoVo [5]: 7.64 ± 1.7 µg/mL |
| Cc1nsc(Cl)c1C(=O)N/N=C/c1cccc(Cl)c1 [Compound 4, 5-Chloro-N’-[(E)-(3-chlorophenyl)methylidene]-3-methylisothiazole-4-carbohydrazide] | 0.81 |  | 15.2 µg/mL and 48.4 µM | 24.6 µg/mL and 78.5 µM | 174 to 175 | 48.6 ± 5.7 µM | 47.9 ± 3.7 µM | 59.4 ± 3.4 µM | IC50 ± SD MCF-7 [2]: 15.2 ± 1.8 µg/mL; IC50 ± SD LoVoDX [3]: 15 ± 1.1 µg/mL; IC50 ± SD LoVo [5]: 18.6 ± 1.1 µg/mL |
| Cc1nsc(Cl)c1C(=O)N/N=C/c1cccc([N+](=O)[O-])c1 [Compound 5, 5-Chloro-N’-[(E)-(3-nitrophenyl)methylidene]-3-methylisothiazole-4-carbohydrazide] | 1.29 |  | 18.7 µg/mL and 57.7 µM | 60.8 µg/mL and 197 µM | 199 to 200 | 20.1 µg/mL and 65.1 µM | 29.2 µg/mL and 94.6 µM | 22.7 µg/mL and 73.4 µM | cytotoxicity against normal MCF-10A cells relative to cancer MCF-7 cells [1]: about three times less cytotoxic |
| CCc1ccc(/C=N/NC(=O)c2c(C)nsc2Cl)cc1 [Compound 6, 5-Chloro-N’-[(E)-(4-ethylphenyl)methylidene]-3-methylisothiazole-4-carbohydrazide] | 0.91 |  | 21.3 µg/mL and 69.4 µM | 40.6 µg/mL and 125 µM | 152 to 154 | 13.9 µg/mL and 42.9 µM | 28.8 µg/mL and 88.8 µM | 31.7 µg/mL and 97.7 µM |  |
| Cc1nsc(Cl)c1C(=O)N/N=C/c1ccccc1 [Compound 8, 5-Chloro-N’-[(E)-phenylmethylidene]-3-methylisothiazole-4-carbohydrazide] |  |  | 36.6 µg/mL and 131 µM |  | 164 to 165 |  |  |  | cytotoxicity against normal MCF-10A cells relative to cancer MCF-7 cells [1]: about three times less cytotoxic |
| Cc1ccc(/C=N/NC(=O)c2c(C)nsc2Cl)c(C)c1 [Compound 9, 5-Chloro-N’-[(E)-(2,4-dimethylphenyl)methylidene]-3-methylisothiazole-4-carbohydrazide] |  | very poor activity | > 80 µg/mL |  | 232 to 234 |  |  |  | cytotoxicity against normal MCF-10A cells relative to cancer MCF-7 cells [1]: about three times less cytotoxic; inhibition at 80 µg/mL ([4]; Homo sapiens): 42.5% |
| Cc1ccccc1/C=N/NC(=O)c1c(C)nsc1Cl [Compound 10, 5-Chloro-N’-[(E)-(2-methylphenyl)methylidene]-3-methylisothiazole-4-carbohydrazide] |  | very poor activity | > 80 µg/mL |  | 226 to 228 |  |  |  | inhibition at 80 µg/mL ([4]; Homo sapiens): 47% |
| Cc1nsc(Cl)c1C(=O)N/N=C/c1ccccc1Cl [Compound 11, 5-Chloro-N’-[(E)-(2-chlorophenyl)methylidene]-3-methylisothiazole-4-carbohydrazide] |  | no antiproliferative activity |  |  | 232 to 233 |  |  |  |  |
